Experimental data: US20110184004A1, “PREDICTIVE MARKER FOR EGFR INHIBITOR TREATMENT” (priority 2007, published 2011)
Entries after “also recorded” stand apart in the source; their conditions may differ.

Experiments:
[1] = system: NSCLC; conditions: second line therapy of NSCLC; cited from earlier work
[2] = system: NSCLC; conditions: cited from earlier work
[3] = system: advanced NSCLC; assay: Open-label Phase II predictive marker study of Tarceva monotherapy, response by RECIST; type: in vivo, human; conditions: 102 analysed patients, oral 150 mg/day
Description: Clinical benefit was defined as either having an objective response, or disease stabilization for ≧12 weeks.
Based on the experience from the BR.21 study, benefiting population was defined as either having objective response, or disease stabilization for 12 weeks. Clinical and microarray datasets were analyzed according to a pre-defined statistical plan.
Overview of Study Design and Dosing Regimen This was an open-label, predictive marker identification Phase II study. The study was conducted in approximately 26 sites in about 12 countries. 264 patients with advanced NSCLC following failure of at least one prior chemotherapy regimen were enrolled over a 12 month period. […] Dose reductions were permitted based on tolerability to drug therapy. Clinical and laboratory parameters were assessed to evaluate disease control and toxicity. Treatment continued until disease progression, unacceptable toxicity or death. The study design is depicted in FIG. 1.
The RECIST (Uni-dimensional Tumour Measurement) criteria were used to evaluate response. These criteria can be found under the following link: http://www.eortc.be/recist/
Note that: To be assigned a status of CR or PR, changes in tumour measurements must be confirmed by repeated assessments at least 4 weeks apart at any time during the treatment period.
In the case of SD, follow-up measurements must have met the SD criteria at least once after study entry at a minimum interval of 6 weeks.
In the case of maintained SD, follow-up measurements must have met the SD criteria at least once after study entry with maintenance duration of at least 12 weeks.
Based on these parameters, data from 20 arrays were excluded from analysis. Thus data from a total of 102 arrays representing 102 patients was included in the analysis.

[4] = patients with cancer, 150 mg/day dose; 500 ng/ml is the average plasma concentration targeted for clinical efficacy; cited from earlier work
[5] = system: NSCLC; conditions: NSCLC patients for whom standard therapy for advanced disease has failed; single agent versus placebo; 150 mg/day; cited from earlier work
[6] = system: epithelial tumours; conditions: cited from earlier work
[7] = advanced NSCLC after failure of at least one chemotherapy, RECIST
[8] = clinical benefit = objective response or disease stabilization for ≧12 weeks

Nc1nc2[nH]cc(CCc3ccc(C(=O)N[C@@H](CCC(=O)O)C(=O)O)cc3)c2c(=O)[nH]1 [pemetrexed]
Efficacy compared with docetaxel [1]: clinically equivalent efficacy
Side effects compared with docetaxel [1]: significantly fewer side effects

CC(=O)O[C@@]12CO[C@@H]1C[C@H](O)[C@@]1(C)C(=O)[C@H](O)C3=C(C)[C@@H](OC(=O)[C@H](O)[C@@H](NC(=O)OC(C)(C)C)c4ccccc4)C[C@@](O)([C@@H](OC(=O)c4ccccc4)[C@H]21)C3(C)C [docetaxel]
Survival, second line ([2]; NSCLC after failure of cisplatin-based first-line regimens, all ages, ECOG performance status 0, 1 or 2, versus best supportive care): improved survival
Survival, third-line treatment or beyond ([2]; patients receiving docetaxel as third-line treatment or beyond): no prolongation of survival

C#Cc1cccc(Nc2ncnc3cc(OCCOC)c(OCCOC)cc23)c1 [Tarceva, erlotinib]
Best Response PD [3, 7]: 49 (48.0%) n (%)
Best Response PR [3, 7]: 6 (5.9%) n (%)
Best Response SD [3, 7]: 31 (30.4%) n (%)
Clinical Benefit NO [3, 8]: 81 (79.4%) n (%)
Clinical Benefit YES [3, 8]: 21 (20.6%) n (%)
Drug levels in plasma [4]: > 500 ng/mL
Survival [5]: significantly prolongs and improves the survival; also recorded: survival benefit
Safety and tolerability ([6]; early clinical data, doses that provide the targeted effective concentration): safe and generally well tolerated
Clinical activity (remissions) ([6]; previously treated patients with head and neck cancer and NSCLC): capable of inducing durable partial remissions
